Details of data set [1]: method as in PMID 25573634. The note with it: over 96 h; cited from earlier work.
The subject of data set [2] is bone metastasis of LNCaP/Luc prostate cancer. In words: Therapeutic efficacy in mice with bone metastasis of LNCaP/Luc prostate cancer. The note with it: for median survival time: tail vein, day 0, control 26 days; for lifespan increase: vs control. The format is in vivo, mouse. Here is the method: Therapeutic response monitoring was performed using bioluminescence imaging on days 3, 7, 15, and 30. […] The survival curves presented in Figure 6C further highlight the therapeutic effect. The median survival time for the control group (receiving normal saline) was 26 days, whereas mice treated with 1mCi (37 MBq) and 3mCi (111 MBq) of ^177Lu-PSMA-617 had median survival times of 34 days (p = 0.01) and 40 days (p = 0.02), respectively.
The mice were intratibially injected with LNCaP/Luc cells. After 45 days of tumor-implantation, the mice were assigned to three groups, including the saline control (n = 6), a low dose of ^177Lu-PSMA-617 (n = 8), and a high dose of ^177Lu-PSMA-617 (n = 9). The mice were administered via the tail vein with equivalent to 1mCi (37 MBq) and 3mCi (111 MBq) of ^177Lu-PSMA-617 on day 0. Body weight changes were measured during observation days. The death of mice was recorded for the survival curve by the Kaplan–Meier method. A humane endpoint was defined as a decrease in body weight of 20% or more compared with the body weight measured on the day of tumor inoculation. The survival rate of all groups was analyzed by the log-rank test, and p < 0.05 was considered significant difference. The median survival time was presented in efficacy studies. The median survival time was calculated as the smallest survival time for which the survivor function is less than or equal to 0.5. The therapeutic responses were monitored by bioluminescence imaging during observation days. The BNL/Luc tumor of mice was imaged and measured using the IVIS Imaging system and Living Imaging software (Xenogen, Alameda, CA, USA; available at https://www.perkinelmer.com) on days 3, 7, 15, and 30.

Another data set has as its system PSMA-negative PC-3 cells. Description: Cell surface binding and internalization, PC-3 cells. The format is cell-based, human. Here is the method:
Cell surface binding and internalization experiments were performed with ^177Lu-PSMA-617 using PSMA-positive LNCaP cells and PSMA-negative PC-3 cells in order to determine if the uptake of ^177Lu-PSMA-617 was PSMA-specific. For this purpose, cells were seeded in 24-well plates (10^5 cells in 1 mL of the RPMI medium/well), allowing adhesion and growth overnight at 37 °C. After the removal of the supernatant, cells were washed once with PBS prior to the addition of the RPMI medium without supplements, followed by the addition of the radiolabeled ^177Lu-PSMA-617 (in MBq/nmol) to each well. The well plates were incubated at 37 °C for 1, 2, and 4 h, respectively. The cells were washed three times with ice-cold PBS to determine the total uptake of ^177Lu-PSMA-617. The internalized fraction of ^177Lu-PSMA-617 was determined in cells which were washed with ice-cold PBS, then incubated for 10 min with acidic stripping buffer (50 mM glycine, pH 2.8) followed by an additional washing step with ice-cold PBS. Cell samples were lysed by the addition of NaOH (1 N, 1 mL) to each well. The samples of the cell suspensions were measured in a γ-counter (PerkinElmer, Waltham, MA, USA).

The target of another data set is T1, PSMA (Homo sapiens, UniProt Q04609).
T1 construct: host or cells: LNCaP human prostate cancer cells
Description: Saturation binding assay on intact LNCaP cells. The note with it: 1 h at 4 °C. Here is the method:
The competitive inhibition assay was performed in 10^5 LNCaP cells/well as previously described. The radioligand (^177Lu-PSMA-617) was added as a 0.75 nM solution to 10 different concentrations of non-labeled, ^natLu-labeled PSMA-617 (from 0.01 to 10,000 nM). After 1 h of incubation at 4 °C, the cells were washed with ice-cold PBS, and the cell-bound radioactivity was measured in a gamma counter (PerkinElmer, Waltham, MA, USA). The IC50 (half-maximal inhibitory concentration) value was determined using GraphPad Prism version 5.0 (Graph Pad Software, San Diego, CA, USA). Determination of the dissociation constants (Kd values) was performed by saturation binding assays using LNCaP cells. A total of 10^5 cells were seeded in 96-well plates (cells in 100 µL of the RPMI medium/well), allowing adhesion and growth overnight at 37 °C and 5% CO2. […] The Kd values were determined by plotting specific binding (total binding minus unspecific binding) against the molar concentration of the added radioligands followed by nonlinear regression analysis using the GraphPad Prism 5 software. The binding affinity (Ki) of ^177/natLu-PSMA-617 was calculated using the following formula as described previously: Ki = IC50/[1 + ([radioligand]/Kd)].

The next data set deals with PSMA-positive tumors. The arrangement: method as in PMID 31399803. The following applies: single intravenous dose of 111 MBq; cited from earlier work.

Broadly, the Kd is the free concentration of one partner at which half of the binding sites on the other are occupied at equilibrium, for simple one-to-one binding. The low end stands for higher affinity, the high end for lower affinity.

T1 sequence (Q04609 whole entry): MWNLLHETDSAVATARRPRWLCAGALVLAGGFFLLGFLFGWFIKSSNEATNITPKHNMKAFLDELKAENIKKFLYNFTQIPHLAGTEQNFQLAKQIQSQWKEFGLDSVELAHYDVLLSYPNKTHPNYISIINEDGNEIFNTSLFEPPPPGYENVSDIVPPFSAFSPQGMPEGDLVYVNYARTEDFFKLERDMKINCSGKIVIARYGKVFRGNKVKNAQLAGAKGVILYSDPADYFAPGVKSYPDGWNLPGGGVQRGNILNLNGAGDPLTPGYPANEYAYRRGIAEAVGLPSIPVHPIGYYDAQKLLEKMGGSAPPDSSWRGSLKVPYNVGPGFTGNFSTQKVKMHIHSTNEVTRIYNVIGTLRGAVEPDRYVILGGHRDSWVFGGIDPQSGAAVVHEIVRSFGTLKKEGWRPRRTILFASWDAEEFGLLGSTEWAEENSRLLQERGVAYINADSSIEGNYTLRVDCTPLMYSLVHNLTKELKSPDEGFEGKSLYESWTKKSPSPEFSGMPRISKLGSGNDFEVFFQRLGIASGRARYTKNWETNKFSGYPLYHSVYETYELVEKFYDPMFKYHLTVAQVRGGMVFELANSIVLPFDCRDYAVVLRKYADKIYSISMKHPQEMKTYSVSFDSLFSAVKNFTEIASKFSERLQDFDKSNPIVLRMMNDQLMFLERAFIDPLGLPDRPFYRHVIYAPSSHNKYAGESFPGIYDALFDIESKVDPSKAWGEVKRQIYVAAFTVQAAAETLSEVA

With `O=C([O-])CN1CCN(CC(=O)[O-])CCN(CC(=O)NCC2CCC(C(=O)N[C@@H](Cc3ccc4ccccc4c3)C(=O)NCCCC[C@H](NC(=O)N[C@@H](CCC(=O)O)C(=O)O)C(=O)O)CC2)CCN(CC(=O)[O-])CC1.[177Lu+3]` (stereo partly shown) [^177Lu-PSMA-617], in data set [1], the “stability in human serum” value was above 95%. In addition, the median survival time is given as 34 days in data set [2] (1mCi (37 MBq), p = 0.01) and 40 days in data set [2] (3mCi (111 MBq), p = 0.02). The lifespan increase in data set [2] (1mCi (37 MBq)) stood at 30.7%; in data set [2] (3mCi (111 MBq)) it was 53.8%. For the same compound, in data set [2] (days 3, 7, 15 and 30 after treatment), the “bioluminescence signal intensity vs controls” value is “significantly lower signal intensities”. Further, the internalization in the data set with PSMA-negative PC-3 cells is given as below 0.1 % IA/10^6 cells. The compound further displayed a surface binding with PSMA-negative PC-3 cells of at most 1.7 % IA/10^6 cells. The compound also displayed a Kd at PSMA of 4.36 ± 0.664 nM. The median survival in the data set on PSMA-positive tumors was 130 days.

The record behind these values is article PMC12250129, “Exploring the Therapeutic Potential of ^177Lu-PSMA-617 in a Mouse Model of Prostate Cancer Bone Metastases” (International Journal of Molecular Sciences, 2025).
